{
  "source": "ChEMBL document CHEMBL3751744",
  "about": "“Antibacterial activities of polythionates enhanced by carbonates” (2015)",
  "key": {"Staphylococcus aureus [1]": {"system": "Staphylococcus aureus", "assay": "Antibacterial activity against Staphylococcus aureus assessed as growth inhibition after 24 hrs by turbidimetric method", "format": "functional"}, "Pseudomonas aeruginosa [2]": {"system": "Pseudomonas aeruginosa", "assay": "microbe, parasite or virus in culture", "format": "functional", "conditions": "24 h", "description": "(§1) Antibacterial activity against Pseudomonas aeruginosa assessed as growth inhibition after 24 hrs by turbidimetric method"}, "Pseudomonas aeruginosa [3]": {"system": "Pseudomonas aeruginosa", "assay": "Bactericidal activity against Pseudomonas aeruginosa assessed number of surviving colonies after 24 hrs", "format": "functional", "conditions": "read-out: MBC99.9"}, "Pseudomonas aeruginosa [4]": {"system": "Pseudomonas aeruginosa", "assay": "Antibacterial activity against Pseudomonas aeruginosa using 24 hrs aged compound solutions by cup diffusion method", "format": "functional, organism-based"}, "Staphylococcus aureus [5]": {"system": "Staphylococcus aureus", "assay": "Antibacterial activity against Staphylococcus aureus assessed as growth inhibition after 24 hrs in presence of urea by turbidimetric method", "format": "functional"}, "Pseudomonas aeruginosa [6]": {"system": "Pseudomonas aeruginosa", "assay": "Antibacterial activity against Pseudomonas aeruginosa assessed as growth inhibition after 24 hrs in presence of urea by turbidimetric method", "format": "functional"}, "Pseudomonas aeruginosa [7]": {"system": "Pseudomonas aeruginosa", "assay": "Bactericidal activity against Pseudomonas aeruginosa assessed number of surviving colonies after 24 hrs in presence of urea", "format": "functional", "conditions": "read-out: MBC99.9"}, "Staphylococcus aureus [8]": {"system": "Staphylococcus aureus", "assay": "Bactericidal activity against Staphylococcus aureus […] assessed number of surviving colonies after 24 hrs in presence of carbonate", "format": "functional, organism-based"}, "Staphylococcus aureus [9]": {"system": "Staphylococcus aureus", "assay": "Antibacterial activity against Staphylococcus aureus assessed as growth inhibition after 24 hrs in presence of carbonate by turbidimetric method", "format": "functional"}, "Pseudomonas aeruginosa [10]": {"system": "Pseudomonas aeruginosa", "assay": "Antibacterial activity against Pseudomonas aeruginosa assessed as growth inhibition after 24 hrs in presence of carbonate by turbidimetric method", "format": "functional"}, "Staphylococcus aureus [11]": {"system": "Staphylococcus aureus", "assay": "Bactericidal activity against Staphylococcus aureus […] assessed number of surviving colonies after 24 hrs in presence of urea", "format": "functional, organism-based"}, "Pseudomonas aeruginosa [12]": {"system": "Pseudomonas aeruginosa", "assay": "Bactericidal activity against Pseudomonas aeruginosa assessed number of surviving colonies after 24 hrs in presence of carbonate", "format": "functional", "conditions": "read-out: MBC99.9"}, "Staphylococcus aureus [13]": {"system": "Staphylococcus aureus", "description": "Bactericidal activity against Staphylococcus aureus assessed number of surviving colonies after 24 hrs"}, "Staphylococcus aureus [14]": {"system": "Staphylococcus aureus", "assay": "Antibacterial activity against Staphylococcus aureus at <125 ug/ml by cup diffusion method", "format": "functional, organism-based"}, "Pseudomonas aeruginosa [15]": {"system": "Pseudomonas aeruginosa", "assay": "Antibacterial activity against Pseudomonas aeruginosa at 125 ug/ml by cup diffusion method", "format": "functional, organism-based"}, "Pseudomonas aeruginosa [16]": {"system": "Pseudomonas aeruginosa", "assay": "Antibacterial activity against Pseudomonas aeruginosa at 7.8 ug/ml by cup diffusion method", "format": "functional, organism-based"}, "Staphylococcus aureus [17]": {"system": "Staphylococcus aureus", "assay": "Antibacterial activity against Staphylococcus aureus at 250 ug/ml by cup diffusion method", "format": "functional, organism-based"}, "Staphylococcus aureus [18]": {"system": "Staphylococcus aureus", "assay": "Potency index, ratio of MIC for Staphylococcus aureus to MIC for Staphylococcus aureus assessed as growth inhibition in presence of urea", "format": "functional"}, "Pseudomonas aeruginosa [19]": {"system": "Pseudomonas aeruginosa", "assay": "Potency index, ratio of MIC for Pseudomonas aeruginosa to MIC for Pseudomonas aeruginosa assessed as growth inhibition in presence of urea", "format": "functional"}, "Staphylococcus aureus [20]": {"system": "Staphylococcus aureus", "remark": "listed apart in the source"}, "Pseudomonas aeruginosa [21]": {"system": "Pseudomonas aeruginosa", "description": "as §1"}, "Pseudomonas aeruginosa [22]": {"system": "Pseudomonas aeruginosa", "remark": "listed apart in the source"}},
  "note": "Calls of active or inactive are those of the source. The rule behind the calls is not given here.",
  "data": [
    {"smiles": "O=S(=O)([O-])SSSS(=O)(=O)[O-].[K+].[K+]", "values": [
      {"measurement": "MIC", "setting": "Staphylococcus aureus [1]", "result": 62.5, "unit": "µg/mL"},
      {"measurement": "MIC", "setting": "Pseudomonas aeruginosa [2]", "result": 1.95, "unit": "µg/mL"},
      {"measurement": "MBC", "setting": "Pseudomonas aeruginosa [3]", "result": 500, "unit": "µg/mL"},
      {"measurement": "Activity", "setting": "Pseudomonas aeruginosa [4]", "result": "Active"},
      {"measurement": "MIC", "setting": "Staphylococcus aureus [5]", "result": "inactive"},
      {"measurement": "MIC", "setting": "Pseudomonas aeruginosa [6]", "result": 15.6, "unit": "µg/mL"},
      {"measurement": "MBC", "setting": "Pseudomonas aeruginosa [7]", "result": 1000, "unit": "µg/mL"},
      {"measurement": "MBC99.9", "setting": "Staphylococcus aureus [8]", "result": "inactive"},
      {"measurement": "MIC", "setting": "Staphylococcus aureus [9]", "result": 125, "unit": "µg/mL"},
      {"measurement": "MIC", "setting": "Pseudomonas aeruginosa [10]", "result": 3.91, "unit": "µg/mL"},
      {"measurement": "MBC99.9", "setting": "Staphylococcus aureus [11]", "result": "inactive"},
      {"measurement": "MBC", "setting": "Pseudomonas aeruginosa [12]", "result": 1000, "unit": "µg/mL"},
      {"measurement": "MBC99.9", "setting": "Staphylococcus aureus [13]", "result": "inactive"}
    ]},
    {"smiles": "O=S(=O)([O-])SSSSS(=O)(=O)[O-].[K+].[K+]", "values": [
      {"measurement": "Activity", "setting": "Staphylococcus aureus [14]", "result": "inactive"},
      {"measurement": "Activity", "setting": "Pseudomonas aeruginosa [15]", "result": "Active"},
      {"measurement": "MIC", "setting": "Staphylococcus aureus [1]", "result": 7.81, "unit": "µg/mL"},
      {"measurement": "MIC", "setting": "Pseudomonas aeruginosa [2]", "result": 0.98, "unit": "µg/mL"},
      {"measurement": "MBC", "setting": "Pseudomonas aeruginosa [3]", "result": 1000, "unit": "µg/mL"},
      {"measurement": "Activity", "setting": "Pseudomonas aeruginosa [16]", "result": "Active"},
      {"measurement": "Activity", "setting": "Staphylococcus aureus [17]", "result": "Active"},
      {"measurement": "Activity", "setting": "Pseudomonas aeruginosa [4]", "result": "Active"},
      {"measurement": "MIC", "setting": "Staphylococcus aureus [5]", "result": 62.5, "unit": "µg/mL"},
      {"measurement": "MIC", "setting": "Pseudomonas aeruginosa [6]", "result": 1.95, "unit": "µg/mL"},
      {"measurement": "MBC", "setting": "Pseudomonas aeruginosa [7]", "result": 500, "unit": "µg/mL"},
      {"measurement": "Ratio", "setting": "Staphylococcus aureus [18]", "result": 4},
      {"measurement": "Ratio", "setting": "Pseudomonas aeruginosa [19]", "result": 4},
      {"measurement": "MBC99.9", "setting": "Staphylococcus aureus [8]", "result": "inactive"},
      {"measurement": "MIC", "setting": "Staphylococcus aureus [9]", "result": 15.6, "unit": "µg/mL"},
      {"measurement": "MIC", "setting": "Pseudomonas aeruginosa [10]", "result": 1.95, "unit": "µg/mL"},
      {"measurement": "MBC99.9", "setting": "Staphylococcus aureus [11]", "result": "inactive"},
      {"measurement": "MBC", "setting": "Pseudomonas aeruginosa [12]", "result": 500, "unit": "µg/mL"},
      {"measurement": "MBC99.9", "setting": "Staphylococcus aureus [13]", "result": "inactive"}
    ]},
    {"smiles": "O=S(=O)(O)SS(=O)(=O)O", "values": [
      {"measurement": "MIC", "setting": "Staphylococcus aureus [20]", "result": "inactive"},
      {"measurement": "MBC99.9", "setting": "Staphylococcus aureus [13]", "result": "inactive"},
      {"measurement": "MIC", "setting": "Pseudomonas aeruginosa [21]", "result": "inactive"},
      {"measurement": "MBC99.9", "setting": "Pseudomonas aeruginosa [22]", "result": "inactive"}
    ]},
    {"smiles": "O=S(=O)(O)O", "values": [
      {"measurement": "MIC", "setting": "Staphylococcus aureus [20]", "result": "inactive"},
      {"measurement": "MBC99.9", "setting": "Staphylococcus aureus [13]", "result": "inactive"},
      {"measurement": "MIC", "setting": "Pseudomonas aeruginosa [21]", "result": "inactive"},
      {"measurement": "MBC99.9", "setting": "Pseudomonas aeruginosa [22]", "result": "inactive"}
    ]},
    {"smiles": "NC(N)=O", "values": [
      {"measurement": "MIC", "setting": "Staphylococcus aureus [20]", "result": "inactive"},
      {"measurement": "MBC99.9", "setting": "Staphylococcus aureus [13]", "result": "inactive"},
      {"measurement": "MIC", "setting": "Pseudomonas aeruginosa [21]", "result": "inactive"},
      {"measurement": "MBC99.9", "setting": "Pseudomonas aeruginosa [22]", "result": "inactive"}
    ]},
    {"smiles": "O=S(O)(O)=S", "values": [
      {"measurement": "MIC", "setting": "Staphylococcus aureus [20]", "result": "inactive"},
      {"measurement": "MBC99.9", "setting": "Staphylococcus aureus [13]", "result": "inactive"},
      {"measurement": "MIC", "setting": "Pseudomonas aeruginosa [21]", "result": "inactive"},
      {"measurement": "MBC99.9", "setting": "Pseudomonas aeruginosa [22]", "result": "inactive"}
    ]},
    {"smiles": "O=S(=O)(O)SSS(=O)(=O)O", "values": [
      {"measurement": "MIC", "setting": "Staphylococcus aureus [20]", "result": "inactive"},
      {"measurement": "MBC99.9", "setting": "Staphylococcus aureus [13]", "result": "inactive"},
      {"measurement": "MIC", "setting": "Pseudomonas aeruginosa [21]", "result": "inactive"},
      {"measurement": "MBC99.9", "setting": "Pseudomonas aeruginosa [22]", "result": "inactive"}
    ]}
  ]
}
